{"source": "paper PMC10606834", "about": "“Is the Neuropeptide PEN a Ligand of GPR83?” (International Journal of Molecular Sciences, 2023)", "key": {"[1]": {"test_system": "GPR83 and GPR83del, with or without HA tag (HEK293 cells; wild-type HEK293 as comparison)", "assay": "Competitive radioligand binding assay, GPR83", "parameters": "species or system human", "excerpt": "One of the most proven methods for quantitatively analyzing the interaction of biomolecules is the competitive radioligand binding assay. […] To safeguard against possible interference of the added Tyr with ligand–receptor binding, two peptides were created and are as follows: one with the Tyr on the aminoterminal end (Tyr-PEN), and the other with Tyr added on the carboxyterminus (PEN-Tyr). Radiolabeled ^125I-PEN-Tyr and ^125I-Tyr-PEN were then used on wild-type HEK293 cells and HEK293 cells expressing various forms of GPR83 (full-length or deletion variant, with or without HA tag) in competition with different concentrations of natural PEN or Tyr-PEN, ranging from 1 pM to 1 µM.\nFigure 5 HEK293 wild-type cells and HEK293 cells overexpressing various forms of GPR83 were used in radioligand binding assays with two different radioactively labeled PEN peptides: [^125I]-Tyr-PEN or [^125I]-PEN-Tyr. (A) Radioligand [^125I]-PEN-Tyr in competition with unlabeled wild-type PEN. (B) Radioligand [^125I]-Tyr-PEN in competition with unlabeled wild-type PEN. (C) Radioligand [^125I]-PEN-Tyr in competition with unlabeled wild-type PEN. (D) Radioligand [^125I]-Tyr-PEN in competition with Tyr-PEN. […]\nTwo variants of human PENs were utilized for radioiodination in this study: one with a tyrosine added at the aminoterminal end (Tyr-PEN: […]-NH2), and one with an additional tyrosine attached to the carboxyterminal end (PEN-Tyr: […]-NH2). Both were labelled with ^125I using the chloramine-T method. Chloramine-T and sodium metabisulfite solutions were freshly prepared in water. For labelling, 10 µL of peptide (stock 1 mM) with 15 µL of sodium phosphate buffer (0.5 M, pH 7.6) was mixed with 37 MBq carrier-free Na^125I (NEZ033L010MC, Perkin Elmer, Waltham, MA, USA). A 4 μL volume of chloramine T (1 mg/mL) was added to start the reaction, and after 30 s, 4 μL sodium metabisulfite (2 mg/mL) was added to stop the iodination. The labeled radioactive peptide was separated from unlabeled peptide with HPLC purification (Agilent ZORBAX 300 Extend-C18 column) using a gradient from 20–50% acetonitrile (+0.1% TFA) against water (+0.1% TFA) for 20 min. To determine the retention time of the radioactive peptide, 1–2 µL of the reaction mixture was analyzed before the purification run. The fraction containing the radiolabeled peptide peak was then collected, diluted with binding buffer to prevent radioautolysis, aliquoted, and stored at −80 °C.\n4.10. Radioligand Binding Assay\nFor competitive radioligand binding assay, approximately 50,000 cells/well were seeded in a 96-well plate incubated overnight at 37 °C. Next day, cells were incubated in binding buffer (50 mM HEPES pH 7.4, 5 mM MgCl2, 1 mM CaCl2, 0.5% BSA, cOmplete protease inhibitors) containing 100,000 counts per minute of ^125I-labelled peptide, with increasing concentrations of unlabeled peptide. After 2 h of incubation, cells were washed for 2–3 times with ice-cold washing buffer (50 mM Tris-HCl, pH 7.4, 125 mM NaCl, 0.05% BSA) and lysed with 1 N NaOH (80 µL/well). The lysed cells were transferred to vials and measured in a gamma counter (Wallac 1470 Wizard, Perkin Elmer, Waltham, MA, USA). Obtained cpm values were plotted with GraphPad Prism 7, and the data were fitted using nonlinear regression (one site—fit Ki, one site—fit logIC50)."}, "[2]": {"test_system": "GPR83 with chimeric Gα16/i3 protein (CHO cells)", "settings": "CHO cells transfected with GPR83 and chimeric Gα16/i3 protein; ref [10]; cited from earlier work", "excerpt": "In the present study, evidence for a molecular interaction of the neuropeptide PEN with the cell surface receptor GPR83 could not be found."}}, "data": [{"sequence": "AADHDVGSELPPEGVLGALLRV [PEN, batch #1 synthesized, batch #2 purchased from Phoenix Pharmaceuticals]", "values": [{"measurement": "concentration-dependent displacement of radioligand", "setting": "[1]; unlabeled peptide 1 pM to 1 µM versus 125I-PEN-Tyr or 125I-Tyr-PEN, HEK293 wild-type and GPR83 / GPR83del with or without HA tag, pH 7.4, 2 h", "value": "neither of these different assay conditions led to a PEN-GPR83 binding signal above background or a concentration-dependent displacement of the radioligand"}, {"measurement": "interaction with GPR83 in radioligand binding assay", "setting": "[1]; up to four GPR83-overexpressing cell clones, two radiolabeled PEN variants, whole cells", "value": "no interaction could be detected between PEN and GPR83"}, {"measurement": "intracellular Ca2+ mobilization", "setting": "[2]", "value": "PEN-induced intracellular Ca^2+ mobilization"}]}]}
